In ChEMBL document CHEMBL1201862, “PubChem BioAssay data set” (2004):
One block for each compound: values may come before it. The source made the active and inactive calls.

Experiments:
[1] = ADAM10 protease inhibitors, dose response, selectivity assay for ADAM17 exosite inhibitor project, biochemical, FRET peptide substrate, recombinant human ADAM10 (AID 743259);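 also: ADAM10 enzyme cleaving a FRET peptide substrate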
[2] = molecular target: Disintegrin and metalloproteinase domain-containing protein 17 (Homo sapiens, UniProt P78536); test: exosite inhibitors of ADAM17, dose response, biochemical (AID 743260)
[3] = molecular target: NAD-dependent protein deacylase sirtuin-5, mitochondrial (Homo sapiens, UniProt Q9NXA8); test: SIRT5 desuccinylase inhibitors, dose response, biochemical, fluorescence imaging, cherry-pick, set 5 (AID 720591);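 also: desuccinylation of succinyl peptide AMC substrate read as fluorescence after trypsin release; potency of inhibitors that lower fluorescence and may act on trypsin instead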
[4] = cells; conditions: HEK293
[5] = Luminescence-based cell-based high throughput dose response assay to identify activators of the DAF-12 from the parasite S. stercoralis (ssDAF-12).; format: functional
[6] = molecular target: T1, Oxysterols receptor LXR-beta (Homo sapiens, UniProt P55055); test: LXR agonists, Gal4 luciferase reporter, dose response, counter-screen for ssDAF-12 agonist project, cell-based, luminescence, HEK293, S. stercoralis campaign (AID 720737); format: functional; conditions: read-out: IC50 (the source's name)
T1 sequence (P55055 whole entry): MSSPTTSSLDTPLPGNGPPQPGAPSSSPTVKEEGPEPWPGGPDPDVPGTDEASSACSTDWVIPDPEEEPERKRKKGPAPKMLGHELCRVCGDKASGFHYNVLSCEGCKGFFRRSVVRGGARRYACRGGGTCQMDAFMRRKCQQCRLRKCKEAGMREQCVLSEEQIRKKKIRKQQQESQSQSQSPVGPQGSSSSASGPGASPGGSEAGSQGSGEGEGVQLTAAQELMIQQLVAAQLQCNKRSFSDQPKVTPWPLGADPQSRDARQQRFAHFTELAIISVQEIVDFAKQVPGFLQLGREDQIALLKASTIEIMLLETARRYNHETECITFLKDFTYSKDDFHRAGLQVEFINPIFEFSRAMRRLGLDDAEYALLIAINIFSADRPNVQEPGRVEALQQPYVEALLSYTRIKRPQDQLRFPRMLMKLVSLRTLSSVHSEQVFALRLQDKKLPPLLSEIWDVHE

[7] = molecular target: T1, Oxysterols receptor LXR-beta; format: functional, cell-based
[8] = molecular target: 1-phosphatidylinositol 4,5-bisphosphate phosphodiesterase gamma-1 (Homo sapiens, UniProt P19174); test: Counterscreen for inhibitors of phospholipase C isozymes (PLC-B3): Fluorescence-based biochemical high throughput dose response assay to identify inhibitors of phospholipase C isozymes (PLC-gamma1).
[9] = molecular target: Albumin (Bos taurus, UniProt P02769); test: Counterscreen for inhibitors of T-cell receptor (TCR)-CD3 interaction: Fluorescence-based biochemical high throughput dose response assay to identify inhibitors of T-cell receptor (TCR)-CD3 interaction using a TAMRA-labeled BSA probe.; format: functional
[10] = molecular target: 1-phosphatidylinositol 4,5-bisphosphate phosphodiesterase beta-3 (Homo sapiens, UniProt Q01970); test: Fluorescence-based biochemical high throughput dose response assay to identify inhibitors of phospholipase C isozymes (PLC-B3).
[11] = molecular target: Induced myeloid leukemia cell differentiation protein Mcl-1 (Homo sapiens, UniProt Q07820); format: functional
[12] = HepG2 cell cytotoxicity, dose response, cytotoxicity control, plate reader, cherry-pick, antagonist series (AID 743416); format: functional, cell-based
[13] = molecular target: Melanocortin receptor 4 (Homo sapiens, UniProt P32245); test: MC4R antagonist potency on cAMP, dose response, cell-based, TR-FRET, biased antagonists (AID 602298); format: functional;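 also: antagonist potency against agonist-stimulated cAMP production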
[14] = MC4R antagonists, dose response, counter-screen for LGR2 antagonist project, cell-based, plate reader, cherry pick (AID 743444); format: functional;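 also: transfected HEK 293 cells stimulated with alpha-MSH peptide; potency of inhibitors of the alpha-MSH evoked signal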
[15] = LGR2 antagonists, dose response, cell-based, HEK293, CRE-luciferase reporter, cherry pick, set 2 (AID 743343); format: functional;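 also: transfected cells were stimulated with diluted bursicon conditioned medium after compound addition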
[16] = HEK293 cell cytotoxicity, dose response, cytotoxicity control, plate reader, cherry-picked samples (AID 743446); format: functional, cell-based
[17] = nonselective inhibitors of cellular cAMP signaling, dose response, counter-screen for MC4R biased antagonist project, cell-based, TR-FRET cAMP detection (AID 602305); format: functional;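 also: U2OS cells stimulated with forskolin near its EC80 as the cAMP inducer; potency is for inhibition of forskolin-stimulated cAMP signaling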
[18] = A549 cell cytotoxicity, dose response, cytotoxicity control, plate reader, cherry-pick, antagonist series (AID 743412); format: functional, cell-based
[19] = molecular target: Genome polyprotein (dengue virus type 2, UniProt P29990); test: Dengue-2 NS5 methyltransferase inhibitors, primary screen, biochemical, confirmation dose response (AID 588689); format: functional
[20] = molecular target: Caspase-6 (Homo sapiens, UniProt P55212); test: human caspase-6 inhibitors, dose response, biochemical, VEID-R110 fluorescence, cherry-pick (AID 720632)
[21] = P. falciparum 3D7-ScDHODH growth inhibitors, dose response, SYBR Green, dry powder samples (AID 1159570); format: functional, cell-based;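 also: parasite growth measured after 72 hours of compound exposure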
[22] = P. falciparum ATP4 D1247Y mutant growth inhibitors, dose response, NITD609-resistant line, SYBR Green, dry powder (AID 1159571); format: functional, cell-based;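 also: parasites synchronized at ring stage by sorbitol before testing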
[23] = P. falciparum Dd2 growth inhibitors, dose response, SYBR Green, cherry-picked samples (AID 1159567); format: functional, cell-based
[24] = HepG2 cell cytotoxicity, dose response, cytotoxicity control, cherry-picked samples (AID 1159577); format: functional, cell-based
[25] = HepG2 cell cytotoxicity, dose response, cytotoxicity control, plate reader, dry powder samples (AID 1159569); format: functional, cell-based;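 also: inhibitor potency with signal falling toward the positive control level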
[26] = P. falciparum Dd2 growth inhibitors, dose response, SYBR Green, dry powder samples (AID 1159566); format: functional, cell-based;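 also: potency for growth inhibition with lower SYBR green DNA signal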
[27] = inhibitors of Vif binding to APOBEC3G peptide, primary screen, biochemical, TR-FRET, GST-Vif 1-94, biotin-A3G peptide, dose response retest (AID 1117319); format: functional;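 also: TR-FRET signal of purified GST-Vif binding a biotinylated A3G peptide; inhibitors lower the FRET signal by blocking Vif and A3G binding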
[28] = growth suppression of beta-catenin-knockout colon cells, dose response, cell-based, HCT116, human colon tumor (AID 1045); format: functional;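 also: HCT116 colon tumor cells with beta catenin knocked out; cells exposed to compound for 60 hours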
[29] = HepG2 cell cytotoxicity, dose response, cytotoxicity control for Shn3 inhibitor project, CellTiter-Glo, cherry-picked (AID 624134); format: functional, cell-based
[30] = growth suppression of PTEN-null colon cells, dose response, cell-based, HCT116 PTEN knockout (AID 1047); format: functional;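 also: HCT116 colon tumor cells with PTEN knocked out; cells exposed to compound for 60 hours before readout; potency for loss of cell viability measured by luminescence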
[31] = control 3'UTR Renilla luciferase suppression, dose response, counter-screen for Shn3 inhibitor project, cell-based, Clone20-Shn3RL, cherry-picked (AID 624133); format: functional
[32] = HepG2 cell cytotoxicity, dose response, cytotoxicity control, ATP luminescence, cherry-pick, activator set 2 (AID 1053143); format: functional, cell-based
[33] = Shn3 3'UTR reporter inhibitors, dose response, cell-based, Clone20 osteoblasts, firefly luciferase, cherry-picked (AID 624132); format: functional;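 also: firefly luciferase luminescence from reporter carrying the Shn3 3'UTR in osteoblasts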
[34] = molecular target: Paired box protein Pax-8 (Homo sapiens, UniProt Q06710); test: inhibitors of PAX8-driven TPO luciferase reporter, dose response, RMG-I cells, cherry-pick (AID 687027); format: functional, cell-based;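 also: luciferase reporter driven by Pax8 target thyroperoxidase promoter measured by SteadyGlo luminescence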
Chain of Paired box protein Pax-8 (Q06710 whole entry): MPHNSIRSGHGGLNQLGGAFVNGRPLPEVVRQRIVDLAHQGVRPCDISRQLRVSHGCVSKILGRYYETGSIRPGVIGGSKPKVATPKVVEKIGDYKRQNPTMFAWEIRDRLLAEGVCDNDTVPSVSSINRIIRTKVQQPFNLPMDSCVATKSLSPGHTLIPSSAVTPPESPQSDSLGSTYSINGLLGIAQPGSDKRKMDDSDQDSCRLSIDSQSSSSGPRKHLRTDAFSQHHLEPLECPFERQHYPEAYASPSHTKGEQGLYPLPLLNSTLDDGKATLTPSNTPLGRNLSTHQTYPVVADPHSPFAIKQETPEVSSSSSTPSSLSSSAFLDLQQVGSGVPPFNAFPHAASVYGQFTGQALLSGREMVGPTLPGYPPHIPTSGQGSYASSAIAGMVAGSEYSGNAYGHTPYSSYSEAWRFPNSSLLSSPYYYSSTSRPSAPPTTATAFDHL

Chain of Disintegrin and metalloproteinase domain-containing protein 17 (P78536 whole entry, the tested form may be a part): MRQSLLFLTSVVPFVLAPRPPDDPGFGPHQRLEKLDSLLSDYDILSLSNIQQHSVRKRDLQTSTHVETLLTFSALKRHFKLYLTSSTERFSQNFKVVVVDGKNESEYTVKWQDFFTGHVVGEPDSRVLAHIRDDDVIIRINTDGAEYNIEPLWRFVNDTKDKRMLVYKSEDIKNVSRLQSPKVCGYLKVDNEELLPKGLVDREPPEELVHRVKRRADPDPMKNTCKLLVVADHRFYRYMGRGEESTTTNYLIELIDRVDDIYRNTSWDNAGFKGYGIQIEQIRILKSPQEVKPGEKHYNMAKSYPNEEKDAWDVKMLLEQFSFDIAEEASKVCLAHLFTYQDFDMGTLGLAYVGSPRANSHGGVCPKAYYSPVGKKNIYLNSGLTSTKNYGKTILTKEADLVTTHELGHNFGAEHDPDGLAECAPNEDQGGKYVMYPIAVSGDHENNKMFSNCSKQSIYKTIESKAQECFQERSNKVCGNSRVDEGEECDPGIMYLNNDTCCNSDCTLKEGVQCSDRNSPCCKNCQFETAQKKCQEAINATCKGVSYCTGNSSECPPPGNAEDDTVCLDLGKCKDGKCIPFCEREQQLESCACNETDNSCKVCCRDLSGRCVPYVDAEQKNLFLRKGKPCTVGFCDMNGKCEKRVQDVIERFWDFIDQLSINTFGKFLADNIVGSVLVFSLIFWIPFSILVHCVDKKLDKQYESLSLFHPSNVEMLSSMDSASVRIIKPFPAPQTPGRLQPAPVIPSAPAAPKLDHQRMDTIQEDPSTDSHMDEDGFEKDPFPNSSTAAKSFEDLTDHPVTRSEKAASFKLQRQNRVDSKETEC
Chain of Genome polyprotein (P29990 2492-3391 limits assumed): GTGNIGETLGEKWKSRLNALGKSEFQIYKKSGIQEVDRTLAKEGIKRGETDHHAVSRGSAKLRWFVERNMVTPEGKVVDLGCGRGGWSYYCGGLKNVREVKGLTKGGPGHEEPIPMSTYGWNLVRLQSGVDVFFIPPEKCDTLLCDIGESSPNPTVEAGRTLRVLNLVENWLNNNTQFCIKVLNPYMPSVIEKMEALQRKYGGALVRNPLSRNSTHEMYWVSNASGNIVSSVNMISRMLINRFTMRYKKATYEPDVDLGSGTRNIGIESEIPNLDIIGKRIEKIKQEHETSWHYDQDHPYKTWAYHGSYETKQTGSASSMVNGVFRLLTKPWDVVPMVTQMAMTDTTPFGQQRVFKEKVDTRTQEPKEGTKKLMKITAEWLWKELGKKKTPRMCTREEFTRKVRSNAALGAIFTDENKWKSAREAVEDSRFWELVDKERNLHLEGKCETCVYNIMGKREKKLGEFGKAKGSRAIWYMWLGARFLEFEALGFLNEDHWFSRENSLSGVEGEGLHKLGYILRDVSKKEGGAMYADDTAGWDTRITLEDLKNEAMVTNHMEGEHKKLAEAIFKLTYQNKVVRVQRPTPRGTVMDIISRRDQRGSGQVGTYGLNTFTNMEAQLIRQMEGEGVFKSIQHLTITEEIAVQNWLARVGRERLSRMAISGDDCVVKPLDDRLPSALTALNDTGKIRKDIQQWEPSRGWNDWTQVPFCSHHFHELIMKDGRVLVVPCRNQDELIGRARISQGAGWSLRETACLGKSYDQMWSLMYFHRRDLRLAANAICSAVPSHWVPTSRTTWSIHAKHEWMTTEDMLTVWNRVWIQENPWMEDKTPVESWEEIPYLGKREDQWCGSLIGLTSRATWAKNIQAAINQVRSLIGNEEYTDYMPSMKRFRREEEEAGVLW
Chain of Induced myeloid leukemia cell differentiation protein Mcl-1 (Q07820 whole entry): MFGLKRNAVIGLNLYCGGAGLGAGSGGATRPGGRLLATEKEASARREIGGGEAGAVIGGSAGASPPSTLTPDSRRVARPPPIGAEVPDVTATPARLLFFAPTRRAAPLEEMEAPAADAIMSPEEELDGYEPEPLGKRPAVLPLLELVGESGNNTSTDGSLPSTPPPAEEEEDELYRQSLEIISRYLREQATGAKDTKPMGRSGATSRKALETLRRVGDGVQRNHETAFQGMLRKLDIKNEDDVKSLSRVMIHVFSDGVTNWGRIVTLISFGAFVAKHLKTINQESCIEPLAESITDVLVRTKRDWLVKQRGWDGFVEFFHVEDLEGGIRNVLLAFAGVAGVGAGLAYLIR
Chain of Caspase-6 (P55212 24-179 limits assumed): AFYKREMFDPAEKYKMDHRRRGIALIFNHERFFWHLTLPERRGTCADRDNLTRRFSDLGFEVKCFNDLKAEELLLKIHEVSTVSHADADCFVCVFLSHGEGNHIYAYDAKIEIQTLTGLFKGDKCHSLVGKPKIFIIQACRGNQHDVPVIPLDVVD
Chain of Caspase-6 (P55212 194-293 limits assumed): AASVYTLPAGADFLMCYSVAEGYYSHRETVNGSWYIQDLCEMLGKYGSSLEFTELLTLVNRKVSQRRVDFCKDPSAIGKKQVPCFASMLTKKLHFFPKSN
Chain of NAD-dependent protein deacylase sirtuin-5, mitochondrial (Q9NXA8 whole entry): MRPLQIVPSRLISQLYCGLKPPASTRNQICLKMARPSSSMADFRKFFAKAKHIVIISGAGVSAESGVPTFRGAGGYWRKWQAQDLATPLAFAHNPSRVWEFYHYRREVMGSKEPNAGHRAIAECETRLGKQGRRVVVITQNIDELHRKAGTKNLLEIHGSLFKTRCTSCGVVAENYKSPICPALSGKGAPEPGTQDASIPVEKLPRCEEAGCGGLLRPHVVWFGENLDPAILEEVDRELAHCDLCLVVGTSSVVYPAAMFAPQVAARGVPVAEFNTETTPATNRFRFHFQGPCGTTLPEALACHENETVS
Chain of 1-phosphatidylinositol 4,5-bisphosphate phosphodiesterase beta-3 (Q01970 whole entry): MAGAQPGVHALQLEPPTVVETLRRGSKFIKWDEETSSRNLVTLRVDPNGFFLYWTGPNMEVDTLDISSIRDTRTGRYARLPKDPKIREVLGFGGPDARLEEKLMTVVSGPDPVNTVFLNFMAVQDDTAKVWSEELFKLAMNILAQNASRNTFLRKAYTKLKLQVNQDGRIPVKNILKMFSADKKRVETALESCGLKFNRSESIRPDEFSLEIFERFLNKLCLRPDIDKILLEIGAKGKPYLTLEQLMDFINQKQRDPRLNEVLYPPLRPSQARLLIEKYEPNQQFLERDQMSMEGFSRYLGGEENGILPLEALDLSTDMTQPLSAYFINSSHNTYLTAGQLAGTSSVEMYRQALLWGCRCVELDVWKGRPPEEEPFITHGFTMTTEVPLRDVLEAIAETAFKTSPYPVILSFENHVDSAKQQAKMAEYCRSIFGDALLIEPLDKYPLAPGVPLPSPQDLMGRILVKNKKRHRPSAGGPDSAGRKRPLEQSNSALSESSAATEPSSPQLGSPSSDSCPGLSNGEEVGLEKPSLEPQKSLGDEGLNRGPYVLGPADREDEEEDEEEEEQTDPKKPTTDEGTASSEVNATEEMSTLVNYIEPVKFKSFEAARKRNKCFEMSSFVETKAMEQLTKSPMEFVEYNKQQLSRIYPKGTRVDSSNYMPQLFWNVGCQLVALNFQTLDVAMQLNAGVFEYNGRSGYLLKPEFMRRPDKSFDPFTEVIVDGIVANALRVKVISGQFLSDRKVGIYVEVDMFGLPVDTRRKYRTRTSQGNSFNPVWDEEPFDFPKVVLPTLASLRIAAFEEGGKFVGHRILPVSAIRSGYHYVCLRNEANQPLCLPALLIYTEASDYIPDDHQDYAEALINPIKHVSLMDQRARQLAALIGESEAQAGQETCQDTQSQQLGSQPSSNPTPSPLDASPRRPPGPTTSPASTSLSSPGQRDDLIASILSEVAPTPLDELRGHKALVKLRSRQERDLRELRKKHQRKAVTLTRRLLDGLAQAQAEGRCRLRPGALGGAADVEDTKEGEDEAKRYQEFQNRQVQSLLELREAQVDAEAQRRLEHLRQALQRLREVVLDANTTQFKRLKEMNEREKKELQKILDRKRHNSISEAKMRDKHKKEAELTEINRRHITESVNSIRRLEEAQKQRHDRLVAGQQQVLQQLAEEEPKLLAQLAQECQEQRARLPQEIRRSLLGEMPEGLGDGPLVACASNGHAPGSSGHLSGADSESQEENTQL
Chain of Albumin (P02769 whole entry): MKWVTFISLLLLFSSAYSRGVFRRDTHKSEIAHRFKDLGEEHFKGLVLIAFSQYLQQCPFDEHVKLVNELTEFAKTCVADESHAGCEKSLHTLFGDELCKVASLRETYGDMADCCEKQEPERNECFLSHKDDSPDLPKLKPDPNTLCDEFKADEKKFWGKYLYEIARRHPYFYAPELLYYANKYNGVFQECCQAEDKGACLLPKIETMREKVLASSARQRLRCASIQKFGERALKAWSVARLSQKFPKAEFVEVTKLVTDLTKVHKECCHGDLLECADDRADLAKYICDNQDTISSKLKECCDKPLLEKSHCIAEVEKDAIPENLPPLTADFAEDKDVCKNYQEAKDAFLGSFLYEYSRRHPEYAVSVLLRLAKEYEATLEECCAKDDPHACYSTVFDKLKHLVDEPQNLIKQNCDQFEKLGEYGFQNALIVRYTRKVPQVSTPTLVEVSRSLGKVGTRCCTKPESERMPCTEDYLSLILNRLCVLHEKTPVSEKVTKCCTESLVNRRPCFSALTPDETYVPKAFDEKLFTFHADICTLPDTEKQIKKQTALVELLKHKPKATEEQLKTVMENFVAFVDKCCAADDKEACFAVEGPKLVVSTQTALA

- IC50 [2]: > 69.5 µM (inactive)
SMILES: COc1ccccc1NC(=O)Cn1nc(-c2ccc(Cl)cc2)c2ccccc2c1=O
- IC50 [1]: 16.3 µM (inactive)

- AC50 [3]: > 30 µM (inactive)
SMILES: COc1ccc(N(C(C)=O)c2nc3ccccc3[nH]2)cc1

SMILES: COC(=O)C1=CN(C)C=C(C(=O)OC)C1c1ccccc1Cl
- AC50 [4]: > 52 µM (inactive)

SMILES: COc1ccc(NC(=O)c2cc3ccccc3cc2OC)cc1
- IC50 [5]: > 67.5 µM (inactive)
- EC50 [6]: > 67.5 µM (inactive)

- EC50 [7]: > 67.5 µM (inactive)
SMILES: Cc1ccc(N/N=C(\C#N)C(=N)N2CCCCCC2)cc1

- IC50 [8]: > 122 µM (inactive)
- IC50 [9]: > 94.1 µM (inactive)
- IC50 [10]: > 122 µM (inactive)
- IC50 [11]: 3.16 µM (not active)
SMILES: O=C1/C(=C/c2ccco2)SC(=S)N1c1cccnc1

SMILES: COc1ccc(CN2Cc3cnnn3-c3ccccc3C2C#N)cc1 (stereo not given)
- AC50 [12]: > 52 µM (inactive)
- IC50 [13]: 26.3 µM (inactive)
- AC50 [14]: 25.8 µM (active)
- AC50 [15]: 27.1 µM (active)
- AC50 [16]: 12.7 µM (active)
- IC50 [17]: > 64.7 µM (inactive)
- AC50 [18]: 20.6 µM (active)

- IC50 [19]: 26.7 µM (active)
- AC50 [20]: 8.47 µM (active)
SMILES: O=C(O)c1cccc(N2C(=O)c3cc([N+](=O)[O-])cc4cc([N+](=O)[O-])cc(c34)C2=O)c1

SMILES: C[C@@H]1CN([C@@H](C)CO)C(=O)c2c(c3ccccc3n2C)-c2ccccc2CO[C@@H]1CN(C)C(=O)Nc1ccc(-c2ccccc2)cc1
- AC50 [21]: 2.36 µM (active)
- AC50 [22]: 1.46 µM (active)
- AC50 [23]: 1.93 µM (active)
- AC50 [24]: > 42 µM (inactive)
- AC50 [25]: > 100 µM (inactive)
- AC50 [26]: 1.48 µM (active)

SMILES: O=C(Nc1ccc(NC(=O)c2ccco2)nc1)c1ccco1
- AC50 [14]: 8.62 µM (active)
- AC50 [15]: 6.67 µM (active)
- AC50 [18]: > 52 µM (inactive)

SMILES: C[C@@H]1CN([C@@H](C)CO)C(=O)Cc2cc(NC(=O)Nc3ccc4c(c3)OCO4)ccc2O[C@H]1CN(C)Cc1ccc2c(c1)OCO2
- AC50 [24]: > 39 µM (inactive)

- IC50 [27]: > 100 µM (active)
SMILES: Cc1ccc(-n2c(Cc3cccn3C)nnc2SCC(=O)Nc2nnc(C)s2)cc1

SMILES: Cc1cccc(/C=C(\c2nc3ccccc3[nH]2)S(=O)(=O)c2ccccc2)c1
- EC50 [28]: 2.37 µM (active)
- AC50 [29]: 24.5 µM (active)
- EC50 [30]: 2.33 µM (active)
- AC50 [31]: 7.04 µM (active)
- AC50 [32]: 11.1 µM (active)
- AC50 [33]: 4.5 µM (active)
- AC50 [34]: 4.1 µM (active)

- IC50 [2]: > 69.5 µM (inactive)
SMILES: O=C1CC(Nc2ccc3ccccc3c2)C(=O)N1Cc1ccccc1 (stereo not given)
- IC50 [1]: > 69.5 µM (inactive)
